Test results: ChEMBL document CHEMBL1128141, “Chemical modification of ring c of himbacine: Discovery of a pharmacophoric element for M2-selectivity” (Bioorg Med Chem Lett, 1995)

Experiments:
[1] = target: T1, Muscarinic acetylcholine receptor M1 (Homo sapiens, UniProt P11229); experiment: Binding affinity against M1 receptor expressed in CHO-K1 cells transfected with human muscarinic receptor sequence using radioligand [3H]quinuclidinyl benzilate ([3H]QNB); format: cell-based
T1 sequence (P11229 whole entry): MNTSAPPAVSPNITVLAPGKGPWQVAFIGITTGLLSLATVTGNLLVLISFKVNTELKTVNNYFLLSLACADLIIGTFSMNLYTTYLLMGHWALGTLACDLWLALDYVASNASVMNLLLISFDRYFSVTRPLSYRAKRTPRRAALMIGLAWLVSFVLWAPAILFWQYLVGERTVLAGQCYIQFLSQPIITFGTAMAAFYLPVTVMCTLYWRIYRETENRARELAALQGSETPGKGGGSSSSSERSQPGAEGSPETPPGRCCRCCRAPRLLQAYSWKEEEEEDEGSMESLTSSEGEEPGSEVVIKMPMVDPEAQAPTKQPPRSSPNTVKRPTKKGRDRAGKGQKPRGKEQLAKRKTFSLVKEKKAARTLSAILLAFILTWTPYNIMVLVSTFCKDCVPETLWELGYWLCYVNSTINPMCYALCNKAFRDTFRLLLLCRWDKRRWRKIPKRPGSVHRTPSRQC

[2] = target: T2, Muscarinic acetylcholine receptor M2 (Rattus norvegicus, UniProt P10980); experiment: Binding affinity against M2 receptor in rat brainstem cells using radioligand [3H]quinuclidinyl benzilate ([3H]QNB); format: cell-based, Brain
T2 sequence (P10980 whole entry): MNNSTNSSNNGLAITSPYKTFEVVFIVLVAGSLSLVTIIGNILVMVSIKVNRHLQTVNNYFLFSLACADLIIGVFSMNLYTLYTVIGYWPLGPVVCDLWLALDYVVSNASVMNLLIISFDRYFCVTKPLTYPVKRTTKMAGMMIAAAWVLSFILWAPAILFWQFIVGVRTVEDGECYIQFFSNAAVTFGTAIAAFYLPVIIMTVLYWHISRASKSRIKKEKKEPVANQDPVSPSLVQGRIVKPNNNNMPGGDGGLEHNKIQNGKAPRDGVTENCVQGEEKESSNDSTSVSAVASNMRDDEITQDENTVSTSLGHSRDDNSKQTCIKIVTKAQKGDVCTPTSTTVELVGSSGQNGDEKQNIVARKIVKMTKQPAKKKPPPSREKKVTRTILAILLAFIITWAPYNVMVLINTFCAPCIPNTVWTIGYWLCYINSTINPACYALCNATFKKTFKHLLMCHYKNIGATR

[3] = target: Muscarinic acetylcholine receptors; M1 & M2 (Homo sapiens) (UniProt P11229+P08172); experiment: Ratio of binding affinities towards M2 receptor to M1 receptor; format: protein assay

Row | SMILES | Kd [1] [nM] | Kd [2] [nM] | Selectivity [3]
1 | CC(=O)OC[C@H]1C[C@H]2CCCC[C@@H]2[C@@H](/C=C/[C@H]2CCC[C@H](C)N2C)[C@H]1[C@H](C)OC(C)=O | 605 | 249 | 2.4
2 | C[C@@H]1OC(=O)[C@H]2C[C@H]3CCCC[C@@H]3[C@@H](/C=C/[C@H]3CCC[C@H](C)N3C)[C@@H]12 [HIMBACINE] | 148 | 10 | 14.8
3 | C[C@@H]1OC[C@H]2C[C@H]3CCCC[C@@H]3[C@@H](/C=C/[C@H]3CCC[C@H](C)N3C)[C@H]21 | 167 | 353 | 0.5
4 | C[C@@H]1O[C@H](OC(=O)C(C)(C)C)[C@H]2C[C@H]3CCCC[C@@H]3[C@@H](/C=C/[C@H]3CCC[C@H](C)N3C)[C@H]21 | 2520 | 464 | 5.4
5 | C[C@@H]1O[C@H](O)[C@H]2C[C@H]3CCCC[C@@H]3[C@@H](/C=C/[C@H]3CCC[C@H](C)N3C)[C@H]21 | 423 | 96 | 4.4
6 | CC(=O)O[C@H]1O[C@@H](C)[C@@H]2[C@H](/C=C/[C@H]3CCC[C@H](C)N3C)[C@H]3CCCC[C@@H]3C[C@H]12 | 866 | 89 | 9.7
7 | C[C@H](O)[C@H]1[C@@H](CO)C[C@H]2CCCC[C@@H]2[C@H]1/C=C/[C@H]1CCC[C@H](C)N1C | 494 | 293 | 1.7
